Experiments:
[1] = test system: TALL-104 cells; assay: Cytokine profiling of cell culture supernatant (Luminex 200), TALL-104; assay type: cell-based, human
Description: Cells were plated at 3.5×10^4 cells in a 48-well plate (Thermo Fisher Scientific, Waltham, MA, USA) in complete medium and incubated at 37° C. with 5% CO2. At 24 hours after plating, almost all the tumor cells were adherent to the bottom of the flask and the complete medium was replaced with the drug-containing medium. […] On the day of analysis, samples were thawed and centrifuged to remove cellular debris.
Human cell line culture supernatants were analyzed using an R&D systems Human Premixed Multi-Analyte Kit (R&D Systems, Inc., Minneapolis, MN, USA) and a Luminex 200 (RRID: SCR_018025) Instrument (LX200-XPON-RUO, Luminex Corporation, Austin, TX, USA) according to the manufacturer's instructions. Sample levels of TNF-α, 4-1BB/TNFRSF9/CD137, IL-8/CXCL8, Ferritin, IFN-β, IL-10, CCL2/JE/MCP-1, VEGF, CXCL13/BLC/BCA-1, IFN-γ, CCL20/MIP-3 α, CCL3/MIP-1 α, CCL22/MDC, CCL4/MIP-1 β, Fas Ligand/TNFSF6, IL-17/IL-17A, IL-2, BAFF/BLyS/TNFSF13B, GM-CSF, CXCL5/ENA-78, TRANCE/TNFSF11/RANK L, CXCL9/MIG, G-CSF, IFN-γ R1/CD119, VEGFR3/Flt-4, C-Reactive Protein/CRP, CXCL11/I-TAC, IL-21, CXCL14/BRAK, IL-6, Fas/TNFRSF6/CD95, TRAIL R3/TNFRSF10C, IL-4, CCL5/RANTES, PD-L1/B7-H1, CCL7/MCP-3/MARC, Chitinase 3-like 1, CXCL10/IP-10/CRG-2, IL-1 β/IL-1F2, IL-7, Prolactin, CCL8/MCP-2, TRAIL R2/TNFRSF10B, M-CSF, IL-15, Granzyme B, IFN-α, TREM-1, IL-12/IL-23 p40, TRAIL/TNFSF10, CCL11/Eotaxin, and IL-18/IL-1F4. Quantitative analysis with 6 standards and a minimum of 50 counts per bead region was used with the Luminex to generate analyte values reported as picograms/milliliter (pg/mL). Sample concentrations less than the lower limit of detection for each particular analyte were recoded as the lower limit value divided by ten. Sample concentrations above the upper limit of detection for a particular analyte were recoded as the upper limit of detection.

[2] = test system: KM12C cells; assay: Microarray gene expression analysis, KM12C; assay type: cell-based, human
Description: A total of 0.5×10^6 tumor cells (HCT-116, HT-29, KM12C) were plated in a 6-well plate and allowed to adhere overnight before 24-hour treatment as indicated. 1×10^6 immune cells (NK92, TALL-104) were plated and treated with elraglusib as indicated for 24 hours. RNA was isolated from cell pellets in batches of 6 using an RNeasy Plus Mini Kit (Cat #74134, Qiagen, Hilden, Germany). Acceptable RNA concentration and quality were verified with Nanodrop and Bioanalyzer measurements. GeneChip™ Human Transcriptome Array 2.0 assays were conducted according to manufacturer instructions in two batches using randomized samples to limit batch effects (Cat #902162, Applied Biosystems, Waltham, MA, USA). Applied Biosystems Transcriptomic Analysis Console (TAC) software (RRID: SCR_016519) was used to calculate fold changes in gene expression relative to the untreated control cells. Values were considered statistically significant for p values <0.05.

[3] = test system: NK-92 natural killer cells; assay: Western blot analysis of NK-92 natural killer cells; assay type: cell-based, human; conditions: through the 72-hour endpoint
Description: Cells were plated in a 6-well plate and incubated overnight before the spent media was replaced with drugged media. Drug treatment lasted for indicated durations. Protein was extracted using radioimmunoprecipitation (RIPA) assay buffer (Cat #R0278, Sigma-Aldrich, St. Louis, MO) containing cOmplete™, Mini, EDTA-free Protease Inhibitor Cocktail (Cat #4693159001, Roche, Basel, Switzerland) from sub-confluent cells. Denaturing sample buffer was added, samples were boiled at 95 degrees for 10 minutes, and an equal amount of protein lysate was electrophoresed through NuPAGE™ 4 to 12%, Bis-Tris, 1.5 mm, Mini Protein Gels (Invitrogen, Waltham, MA) then transferred to PVDF membranes. The PVDF membrane was blocked with 5% non-fat milk (Sigma-Aldrich, St. Louis, MO) in 1×TTBS. Primary antibodies were incubated with the transferred PVDF membrane in blocking buffer at 4° C. overnight. Secondary antibodies used included Goat anti-Rabbit IgG (H+L) Secondary Antibody, HRP (Cat #31460, Invitrogen, Waltham, MA), and Goat anti-Mouse IgG (H+L) Secondary Antibody, HRP (Cat #31430, Invitrogen, Waltham, MA). Signal was detected using Pierce™ ECL Western Blotting Substrate (Cat #32106, Thermo Scientific, Waltham, MA, USA) and a Syngene Imaging System (RRID: SCR_015770).

[4] = test system: NK-92 cells; assay: 10x single-cell sequencing, NK-92; assay type: cell-based, human; conditions: 1 μM, 24 hours vs DMSO
Description: Single cells were captured and 3′ single-cell gene expression libraries were conducted (Next GEM v3.1) using the 10× Genomics Chromium system by SingulOmics (SingulOmics, New York, NY, USA). Gene expression libraries were sequenced with ~200 million PE150 reads per sample on Illumina (RRID: SCR_016387) NovaSeq (Illumina, Inc., San Diego, CA, USA). After sequencing clean reads were then analyzed with human reference genome GRCh38 using Cell Ranger v6.1.2 ([RRID: SCR_017344],10× Genomics, Pleasanton, CA, USA). Data were analyzed and visualized using Loupe Browser ([RRID: SCR_018555], 10× Genomics, Pleasanton, CA, USA).

[5] = test system: refractory solid tumors of multiple tissue origins; assay: Phase 1 clinical trial of elraglusib (NCT03678883), PFS and OS; assay type: in vivo, human; conditions: patients analysed, n=19, multiple tumor types
Description: Archival tumor specimens and peripheral blood samples were collected from patients enrolled in the Phase I study of Elraglusib (9-ING-41), a small molecule selective glycogen synthase kinase-3 beta (GSK-3b) inhibitor, as monotherapy or combined with cytotoxic regimens in patients with relapsed or refractory hematologic malignancies or solid tumors (Clinicaltrials.gov NCT03678883) who received treatment at the Lifespan Cancer Institute (Providence, RI, USA). The study was conducted in accordance with the Declaration of Helsinki and the International Conference on Harmonization Good Clinical Practice guidelines. The study protocol was approved by the Institutional Review Board (IRB) of Rhode Island Hospital under protocol number 1324888-120. The patients also participated in a Lifespan Cancer Institute research protocol designed to investigate molecular and genetic features of tumors and mechanisms of resistance (Rhode Island Hospital IRB protocol number 449060-38). All patients provided written informed consent.

Cn1cc(C2=C(c3coc4ccc(F)cc34)C(=O)NC2=O)c2cc3c(cc21)OCO3 [elraglusib, 3-(5-fluorobenzofuran-3-yl)-4-(5-methyl-5H-[1,3]dioxolo[4,5-f]indol-7-yl)-1H-pyrrole-2,5-dione]
IFN-γ concentration in supernatant ([1]; 1 μM, 48 hours): increases
TRAIL concentration in supernatant ([1]; 1 μM, 48 hours): increases
granzyme B concentration in supernatant ([1]; 1 μM, 48 hours): increases
IFN-γ in cell culture supernatant ([1]; 24 hours treatment vs DMSO): significant increase in IFN-γ
GZMA (granzyme A) gene expression fold change ([2]; 24 hours vs DMSO): 1.53 FC
downregulated genes in VEGFA-VEGFR2 signaling pathway ([2]; 24 hours vs DMSO): 48
differentially expressed genes post-treatment ([2]; IC-50 concentration (1 μM), 24 hours, FC cutoff >1.5, <−1.5, p<0.05): 1,032
Mcl-1 protein expression [3]: did not observe a significant decrease
immune cell activation marker CD69 expression [4]: increase
immune cell attractant CCL4 expression [4]: increase
immunosuppressive marker CHI3L1 expression [4]: decrease
median OS [5]: 101 days
median PFS [5]: 75.9 days

Reference: patent US20260256741A1, “ANTICANCER MALEIMIDE DERIVATIVES FOR USE WITH IMMUNE CHECKPOINT BLOCKADE” (BROWN UNIVERSITY, priority 2022, published 2026)
